According to US10899754B2, “Modulators of indoleamine 2,3-dioxygenase” (GLAXOSMITHKLINE INTELLECTUAL PROPERTY DEVELOPMENT LIMITED, priority 2016, dated 2021):

Columns and labels:
[1] = system: human epithelial HeLa cells; assay: HeLa cytotoxicity assay (CellTiter-Glo); assay type: cell-based; details: pCC50
In short: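 Read-out is CellTiter-Glo luminescence after 2 days at 37 °C, on IFN-γ-stimulated (10 nM) HeLa cells seeded at 5,000/well with compounds in 11-point 3-fold dose series. pCC50 from four-parameter curve fit; wells without cells set 100% cytotoxicity, stimulated cells with DMSO set 0%.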

[2] = molecular target: indoleamine 2, 3-dioxygenase (IDO1) (Homo sapiens, UniProt P14902); assay: IDO1 HeLa RapidFire MS assay (kynurenine detection by mass spectrometry); assay type: cell-based; parameters: to induce the expression of indoleamine 2, 3-dioxygenase (IDO1); details: HeLa cells, pIC50, read-out: IDO1_HELA_PXC50 (converted)
Chain of indoleamine 2, 3-dioxygenase (IDO1) (P14902 whole entry): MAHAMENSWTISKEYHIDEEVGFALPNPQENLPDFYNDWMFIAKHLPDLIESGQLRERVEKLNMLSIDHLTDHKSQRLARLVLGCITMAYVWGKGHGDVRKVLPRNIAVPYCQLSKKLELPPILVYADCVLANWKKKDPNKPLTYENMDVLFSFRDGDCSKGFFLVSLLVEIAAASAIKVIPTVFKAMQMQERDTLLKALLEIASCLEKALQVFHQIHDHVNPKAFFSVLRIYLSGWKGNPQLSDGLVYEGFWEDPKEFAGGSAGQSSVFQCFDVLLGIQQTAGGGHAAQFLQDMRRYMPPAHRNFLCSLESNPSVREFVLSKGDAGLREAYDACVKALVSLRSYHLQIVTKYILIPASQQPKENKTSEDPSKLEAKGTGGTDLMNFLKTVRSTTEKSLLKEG
In short: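 Compound potency reported as pIC50 from kynurenine/internal-standard ratio (RapidFire MS) in supernatant of IFN-γ-induced (10 nM) HeLa cells, 5,000 per well, after 2 days' treatment with 11-point dilutions. Cytotoxicity in the same format by luminescent ATP detection, reported as pCC50.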

Row | Structure (SMILES) | IC50 [2] | HELA_IDO1_TOX_PXC50 [1]
1 | CC(C)CN(c1ccc(-c2cccnc2C(=O)O)cc1Nc1nc(Cl)ns1)C1CCOCC1 [example 270, 3-{3-[(3-chloro-1,2,4-thiadiazol-5-yl)amino]-4-[(2-methylpropyl)(oxan-4-yl)amino]phenyl}pyridine-2-carboxylic acid] | 1.58 µM | <5
2 | CC(C)CN(c1ccc(-c2ccccc2C(=O)O)cc1Nc1nc(C(F)(F)F)ns1)C1CCN(CCO)CC1 [example 271, 4′-{[1-(2-hydroxyethyl)piperidin-4-yl](2-methylpropyl)amino}-3′-{[3-(trifluoromethyl)-1,2,4-thiadiazol-5-yl]amino}-[1,1′-biphenyl]-2-carboxylic acid] | 6.31 µM | <5
3 | CC(C)CN(c1ccc(-c2ccccc2C(=O)O)cc1Nc1nc(C(F)(F)F)ns1)C1CCNCC1 [example 272, 4′-[(2-methylpropyl)(piperidin-4-yl)amino]-3′-{[3-(trifluoromethyl)-1,2,4-thiadiazol-5-yl]amino}-[1,1′-biphenyl]-2-carboxylic acid] | 5.01 µM | <5
4 | CC(C)CN(c1ccc(-c2ccccc2C(=O)O)cc1Nc1nc(C(F)(F)F)ns1)C1CCN(C(=O)OC(C)(C)C)CC1 [example 273, 4′-({1-[(tert-butoxy)carbonyl]piperidin-4-yl)-(2-methylpropyl)amino)-3′-{[3-(trifluoromethyl)-1,2,4-thiadiazol-5-yl]amino}-[1,1′-biphenyl]-2-carboxylic acid] | 0.00794 µM | <5
5 | CC(C)CN(c1ccc(-c2ccccc2C(=O)O)cc1Nc1nc(C(F)(F)F)ns1)C1CCN(C)CC1 [example 274, 4′-[(1-methylpiperidin-4-yl)(2-methylpropyl)amino]-3′-{[3-(trifluoromethyl)-1,2,4-thiadiazol-5-yl]amino}-[1,1′-biphenyl]-2-carboxylic acid] | 1 µM | <5
6 | CC(C)CN(c1ccc(-c2cccnc2C(=O)O)cc1Nc1nc2ccccc2[nH]1)C1CCCCC1 [example 278, 3-{3-[(1H-1,3-benzodiazol-2-yl)amino]-4-[cyclohexyl(2-methylpropyl)amino]phenyl}pyridine-2-carboxylic acid] | 0.0501 µM | <5
7 | CC(C)CN(CC(C)C)c1ccc(-c2ccccc2C(=O)O)cc1Nc1ccn(C)n1 [example 280, 4′-[bis(2-methylpropyl)amino]-3′-[(1-methyl-1H-pyrazol-3-yl)amino]-[1,1′-biphenyl]-2-carboxylic acid] | 2.51 µM | <5

Continued, in another order:

Row | IC50 [2] | Structure (SMILES) | HELA_IDO1_TOX_PXC50 [1]
8 | 6.31 µM | CC(C)CN(c1ccc(-c2ccccc2C(=O)O)cc1Nc1nc(C(=O)O)ns1)C1CCCCC1 [example 275, 5-({2′-carboxy-4-[cyclohexyl(2-methylpropyl)amino]-[1,1′-biphenyl]-3-yl}amino)-1,2,4-thiadiazole-3-carboxylic acid] | <5
9 | 0.316 µM | CC(C)CN(c1ccc(-c2ccccc2C(=O)O)cc1NCCC#N)C1CCCCC1 [example 277, 3′-[(2-cyanoethyl)amino]-4′-[cyclohexyl(2-methylpropyl)amino]-[1,1′-biphenyl]-2-carboxylic acid] | <5
10 | 0.1 µM | CC(C)CN(c1ccc(-c2ccncc2C(=O)O)cc1Nc1nc2ccccc2o1)C1CCCCC1 [example 281, 4-{3-[(1,3-benzoxazol-2-yl)amino]-4-[cyclohexyl(2-methylpropyl)amino]phenyl}pyridine-3-carboxylic acid] | <5
11 | 0.0501 µM | CC(C)CN(c1ccc(-c2ccccc2C(=O)NS(C)(=O)=O)cc1Nc1nc(C(F)(F)F)ns1)C1CCCCC1 [example 282, 4′-[cyclohexyl(2-methylpropyl)amino]-N-methanesulfonyl-3-′ {[3-(trifluoromethyl)-1,2,4-thiadiazol-5-yl]amino}-[1,1′-biphenyl]-2-carboxamide] | <5
